In patent US20240285680A1, “METHOD OF TREATING ALZHEIMER'S DISEASE” (Vector Vitale IP LLC, priority 2021, published 2024):
Where “and” joins values, the source holds several entries; their conditions need not be identical. Equal entries are not always repeated.

Tests used:
CD86 = CD86 expression in circulating phagocytes, Aβ25-35 model; assay type: in vivo, rat; settings: Aβ25-35 AD rats
Experimental: The phenotypic profile of phagocytes of various localization was characterized by the expression of markers of functional maturity and metabolic polarization (CD206 and CD86), which was determined by flow cytometry and the use of monoclonal antibodies of appropriate specificity marked with fluorescent dyes (Abcam, Becton Dickinson).

[1] = system: tyrosine hydroxylase (TH); test: Immunohistochemical identification of tyrosine hydroxylase in hippocampus, Aβ1-40-induced AD rats; assay type: in vivo, rat; settings: Aβ1-40 AD rats; TH-positive hippocampal cells; individual animals 661 E, F, G; listed as Zn
Experimental: (§1) Degeneration of the hippocampal neurons was assessed using immunohistochemical analysis for the expression level of tyrosine hydroxylase (TH). Immunohistochemical staining was performed using primary anti-TH antibodies at a 1:200 dilution (Millipore, AB152). Endogenous peroxidase activity was blocked with a blocking reagent (Dako, EnVision Flex, DM821). Nonspecific antibody binding was blocked using 4% dry milk dissolved in Tris-buffered saline (TBS) containing 0.2% Triton X-100.
(§2) The primary antibody was diluted in TBS containing 0.2% Triton X-100 and applied to tissue sections. The sections were then incubated overnight (+4° C.). Secondary antibodies (anti-rabbit biotinylated antibodies, 1:200) were incubated for 60 minutes. The immunoreaction was developed using diaminobenzidine (Dako, EnVision) applied for 5 minutes. The results of immunohistochemical staining were evaluated at the light-optical level using a Zeiss Primo Star microscope. The intensity of TH-positive staining was evaluated using a semiquantitative scoring system as described in the Quantitative Scoring Method ([http://www.ihcworld.com/ihc_scoring.htm]) taking into account the number of positive (stained) cells and the intensity of staining (Table 1). The results were presented as a quick score (Q) calculated by the following formula: Q=P×I, where P is the percentage of positive cells and I is the staining intensity.

[2] = system: tyrosine hydroxylase (TH); test: Immunohistochemical identification of tyrosine hydroxylase in hippocampus, Aβ25-35-induced AD rats; assay type: in vivo, rat; settings: Aβ25-35 AD rats
Experimental: as §1, §2

[3] = system: rat models of Aβ1-40-induced Alzheimer's disease; test: Barnes maze memory and cognitive flexibility tests, Aβ1-40-induced AD rats; assay type: in vivo; settings: Aβ1-40 model; for Time spent near the entrance to the “escape box”, after surgery / Time spent near the entrance to the “escape box”, % of changes / Time spent near the entrance to the “escape box”, before surgery: cognitive flexibility; for Time spent near the entrance to the “escape box”, after surgery / Time spent to find the “escape box”, after surgery: after surgery and treatment; for Time spent near the entrance to the “escape box”, after surgery / Time spent near the entrance to the “escape box”, before surgery / Time spent to find the “escape box”, after surgery / Time spent to find the “escape box”, before surgery: M ± SD; for Time spent near the entrance to the “escape box”, % of changes / Time spent to find the “escape box”, % of changes: after vs before surgery; for Time spent near the entrance to the “escape box”, before surgery / Time spent to find the “escape box”, before surgery: baseline before surgery
Experimental: Kinga Gawel et al., Assessment of spatial learning and memory in the Barnes maze task in rodents-methodological consideration, Naunyn Schmiedebergs Arch Pharmacol. 2019; 392(1): 1-18. doi: 10.1007/s00210-018-1589-y.
The other holes remained open.
The rat was allowed to move freely around the table for 2-3 minutes.
Fifteen minutes after the habituation session, on the 2nd, 3rd and 4th days of the experiment, the task training was repeated 4 times every 15 minutes (min) (3 min on the table surface+1 min in the “escape box” with the light off).
The table surface was disinfected after each trial.
18 days after the operation, the animals had another 4-day training session (probe phase) with a changed location of the “escape box”.
The following time periods were measured in seconds: 1) the time the animal spent to find the entrance to the “escape box” (assessment of spatial learning and spatial memory associated with the hippocampal function); 2) the time the animal spent near the entrance (assessment of cognitive flexibility associated with the function of the frontal cortex of the brain)—the less time the animal spends near the closed entrance, the quicker it understands that it is necessary to look for escape elsewhere.

[4] = Body weight changes in rat models of Aβ1-40-induced AD; assay type: in vivo; settings: Aβ1-40 AD rats, treated group; baseline before the operation
From the text: Male Wistar rats (300-500 g) were used. The animals were maintained under standard conditions in the vivarium of the ESC “Institute of Biology and Medicine” of Taras Shevchenko National University of Kyiv. They were given ad libitum access to food and water.
Alzheimer's Disease was induced in old male rats (14 months old) by giving them intrahippocampal injections of aggregated Amyloid Beta (Aβ 1-40) Peptide (human) (Cayman Chemical Company) and Amyloid Beta (Aβ 25-35) Peptide (human) (Tocris Bioscience, Brostol). Aβ1-40 and Aβ 25-35 were dissolved in bidistilled water to the concentration of 15 μmol/L and incubated at 37° C. for 24 hours for aggregation. Aβ conglomerates were broken up by ultrasound and sterilized immediately prior to injection.
Rats were anesthetized using a mixture of ketamine (75 mg/kg, diluted in sterile water for injection, Sigma, USA) and 2% xylazine (100 μl/rat, Alfasan International B.V., Netherlands) administered intraperitoneally in a total volume of 1 ml. A rat was placed in a stereotaxic apparatus (SEZH-4) modified for rats. The animal was then scalped from the point of intersection of the sagittal suture with bregma (zero point): 2 mm distally, 2 mm laterally and 3.5 mm in depth and a trephine opening was made with an injection needle, directly into the hippocampus. […]

[5] = system: rat models of Aβ25-35-induced Alzheimer's disease; test: Barnes maze memory and cognitive flexibility tests, Aβ25-35-induced AD rats; settings: for Time spent near the entrance to the “escape box”, after surgery / Time spent near the entrance to the “escape box”, % of changes / Time spent near the entrance to the “escape box”, before surgery / Time spent to find the “escape box”, after surgery / Time spent to find the “escape box”, % of changes / Time spent to find the “escape box”, before surgery: Aβ25-35 model; for Time spent near the entrance to the “escape box”, after surgery / Time spent near the entrance to the “escape box”, % of changes / Time spent near the entrance to the “escape box”, before surgery: cognitive flexibility; for Time spent near the entrance to the “escape box”, after surgery / Time spent to find the “escape box”, after surgery: after surgery and treatment; for Time spent near the entrance to the “escape box”, after surgery / Time spent near the entrance to the “escape box”, before surgery / Time spent to find the “escape box”, after surgery / Time spent to find the “escape box”, before surgery: M ± SD; for Time spent near the entrance to the “escape box”, % of changes / Time spent to find the “escape box”, % of changes: after vs before surgery; for Time spent near the entrance to the “escape box”, before surgery / Time spent to find the “escape box”, before surgery: baseline before surgery
From the text: An animal learns to remember the location of the target zone (“escape box”) using peripheral visual cues in the testing area as reference points.
Barnes maze used consisted of a circular table with 16 circular holes around its circumference. Peripheral visual cues, such as black marks (a triangle on one wall and two parallel strips on the opposite wall), were placed for better orientation of the animal. Under one of the holes an “escape box” containing standard filler for animals was fixed. Each animal was assigned its number of the hole to which the “escape box” was fixed. The other holes remained open. Before performing the probe phase (after the operation), the number of the hole was changed.
On the 1st day of the experiment, during the first training of rats, a habituation session was performed, which was not repeated during the probe phase. A rat was placed in the center of the circular table and kept under a non-transparent hood for 10 seconds. The light above the table was then turned on and the hood lifted. The rat was allowed to move freely around the table for 2-3 minutes.
Fifteen minutes after the habituation session, on the 2nd, 3rd and 4th days of the experiment, the task training was repeated 4 times every 15 minutes (min) (3 min on the table surface+1 min in the “escape box” with the light off). The time during which the animal managed to reach the “escape box” was recorded at each trial.
Short-term memory of the animals was tested on the 5th day, and long-term memory was tested on the 9th day (5th day after the last training). All the holes of the maze were closed, and the rat was allowed to freely explore the open arena for 90 seconds to find “its” corresponding hole on the table top (under which the “escape box” was previously located) based on previously acquired skills. The amount of time the animal spent searching for the correct hole, and the time it spent near the hole was recorded. The table surface was disinfected after each trial.
18 days after the operation, the animals had another 4-day training session (probe phase) with a changed location of the “escape box”. As in the case before the operation, short-term memory was tested on the 5th day, and long-term memory was tested on the 9th day (5th day after the last training session).

[6] = long-term memory, 5 days following training
[7] = short-term memory, 24 hours following training

^64Zn-aspartate
expression of CD86 by circulating phagocytes (CD86): elevated
fraction of CD86+ cells among circulating phagocytes (CD86): increase
Q = P × I [1]: 4 and 2 and 6
Q = P × I ([2]; TH-positive hippocampal cells, individual animals 663 A, B, listed as Zn): 6 and 4
staining intensity of TH-positive cells ([2]; hippocampus): no effect
tyrosine hydroxylase expression, Q value (group mean) ([2]; hippocampus): 5.0±1.4
Time spent near the entrance to the “escape box”, after surgery ([3]; 24 hours following training): 22.57 ± 7.77 s
Time spent near the entrance to the “escape box”, % of changes ([3]; 24 hours following training): −31.6%
Time spent near the entrance to the “escape box”, before surgery ([3]; 24 hours following training): 33 ± 7.39 s
Time spent near the entrance to the “escape box”, after surgery ([3]; 5 days following training): 29 ± 6.14 s
Time spent near the entrance to the “escape box”, % of changes ([3]; 5 days following training): 23.03%
Time spent near the entrance to the “escape box”, before surgery ([3]; 5 days following training): 23.57 ± 6.61 s
Time spent to find the “escape box”, after surgery [3, 6]: 5 ± 1.54 s
Time spent to find the “escape box”, % of changes [3, 6]: −70.59%
Time spent to find the “escape box”, before surgery [3, 6]: 17 ± 6.74 s
Time spent to find the “escape box”, after surgery [3, 7]: 4.14 ± 0.74 s
Time spent to find the “escape box”, % of changes [3, 7]: −42.04%
Time spent to find the “escape box”, before surgery [3, 7]: 7.14 ± 1.49 s
body weight before the operation [4]: 432.1 ± 29.7 g
tendency towards impairment of long-term memory ([5]; Aβ25-35 AD rats): not improved
Time spent near the entrance to the “escape box”, after surgery ([5]; 24 hours following training): 30.67 ± 7.32 s
Time spent near the entrance to the “escape box”, % of changes ([5]; 24 hours following training): 12.2%
Time spent near the entrance to the “escape box”, before surgery ([5]; 24 hours following training): 27.33 ± 4.06 s
Time spent near the entrance to the “escape box”, after surgery ([5]; 5 days following training): 18.17 ± 5.38 s
Time spent near the entrance to the “escape box”, % of changes ([5]; 5 days following training): −40.76%
Time spent near the entrance to the “escape box”, before surgery ([5]; 5 days following training): 30.67 ± 4.32 s
Time spent to find the “escape box”, after surgery [5, 6]: 21.83 ± 12.53 s
Time spent to find the “escape box”, % of changes [5, 6]: 48.86%
Time spent to find the “escape box”, before surgery [5, 6]: 14.67 ± 3.53 s
Time spent to find the “escape box”, after surgery [5, 7]: 8.33 ± 5.76 s
Time spent to find the “escape box”, % of changes [5, 7]: −37.5%
Time spent to find the “escape box”, before surgery [5, 7]: 13.33 ± 7.8 s
